{"source": "patent US20150190396A1", "about": "“TREATMENT OF TYPE I AND TYPE II DIABETES” (Melior Pharmaceuticals I, Inc., priority 2011, published 2015)", "assay_type_in_all_cases": "in vivo", "key": {"[1]": {"test_system": "male DbDb Lep-deficient mice", "test": "Db/Db Study 1: blood glucose after insulin and/or Compound 102", "procedure": "In the present study, male DbDb Lep-deficient mice (Harlan Laboratories) approximately 16 weeks of age were used. [table] Procedure: Mice were divided into 4 groups of 6 mice per group. Blood glucose levels were measured using Accu-Chek Aviva Glucometers (Roche Diagnostics). The times of blood glucose levels were measured up to 72 hours after administration. Glucometers were calibrated prior to each study. […] Glucose levels are reported as mg/dL. In study 1, animals were fasted for 4 hours prior to the administration of test articles and then continuously fasted through to the 8-hour time point. Animals were then provided food ad libitum until 4-hour prior to the 28-hour time point at which point they were fasted until the last blood glucose measurement time point. Data are expressed as the average±SEM. Data were analyzed by two-way ANOVA followed by post-hoc Bonferroni test. N=6/group."}, "[2]": {"test_system": "male DbDb Lep-deficient mice", "test": "Db/Db Study 2: blood glucose 24-72 hours after insulin and/or Compound 102", "settings": "for blood glucose levels compared with vehicle controls: twenty-four hours after administration alone, insulin 1.5 units/kg or Compound 102 100 mg/kg, 18 week old db/db mice", "procedure": "In the present study, male DbDb Lep-deficient mice (Harlan Laboratories) approximately 18 weeks of age were used. [table] Procedure: Mice were divided into 4 groups of 6 mice per group. Blood glucose levels were measured using Accu-Chek Aviva Glucometers (Roche Diagnostics). The times of blood glucose levels were measured up to 72 hours after administration. Glucometers were calibrated prior to each study. […] Glucose levels are reported as mg/dL. In study 2, animals were fasted for 4 hours prior to each blood glucose measurement time point and then returned to ad libitum food. Data are expressed as the average±SEM. Data were analyzed by two-way ANOVA followed by post-hoc Bonferroni test. N=6/group Results: A second study was conducted to repeat the findings of Compound 102 effects on insulin action in the 24-72 hours time window and specifically to follow the insulin/Compound 102 combination effect through until it returned to normal levels (i.e., that of vehicle-treated animals). In the second study, there were three differences from the first: 1) mice were 18 weeks of age at the time of study, 2) the insulin dose-level was reduced from 3 to 1.5 U/kg and 3) blood glucose levels were measured out until 72 hours after administration."}, "[3]": {"test_system": "streptozocin Type I diabetic male CD-1: ICR mice", "test": "Streptozocin Type I diabetic mice, insulin tolerance test, blood glucose", "procedure": "In the present study, male CD-1: ICR mice (Charles River) approximately 8 weeks of age were used. Streptozocin administration to mice destroys pancreatic β-cells and is used to produce a model of Type I diabetes. In response to loss of pancreatic β-cells, mice become hyperglycemic. These mice are insulin responsive.\nStreptozocin administration: Streptozocin administration to mice was conducted by a standard method. Briefly, mice were administered STZ at a dose-level of 70 mg/kg on day 1, 3 and 8. Each administration was preceded by an 18 hour fast. Mice were administered insulin (0.5 U) on days 2 and 9. On day 11, blood glucose levels were measured. Mice with blood glucose levels less than 300 mg/dL were excluded from the study. Mice were randomized to treatment groups.\nMice were tested on the insulin tolerance test on day 14 after the initial STZ administration. Mice were administered insulin (0.35U s.c.) and then 30 minutes later administered Compound 102 (100 mg/kg i.p.).\nBlood glucose was measured 5, 15, 30, 60, 90, 120, 180, 240, 360, and 480 minutes after Compound 102 or vehicle administration. Blood was collected from a tail snip and drop of blood measured for glucose levels by glucometer (Accu-Chek Aviva Glucometers; Roche Diagnostics).\nData are expressed as the average±SEM. Data were analyzed by two-way ANOVA followed by post-hoc Bonferroni test. N=6/group"}}, "note": "Entries after “also recorded” stand apart in the source; their conditions may differ.", "data": [{"compound": "Cc1cccc(Oc2cnc(=O)[nH]c2)c1", "note": "[Compound 102]", "values": [{"measurement": "effect on blood glucose levels", "setting": "[1]; Compound 102 100 mg/kg alone, 100 mg/kg", "result": "did not significantly affect blood glucose levels at any time point after administration; also recorded: Small, but statistically insignificant lowering of blood glucose"}, {"measurement": "blood glucose levels compared with vehicle controls", "setting": "[2]", "result": "not different from vehicle controls"}, {"measurement": "effect on insulin action / insulin-mediated blood glucose lowering", "setting": "[3]; Compound 102 100 mg/kg i.p. 30 minutes after insulin, p<0.05, p<0.001 versus insulin alone, FIG. 3, 100 mg/kg", "result": "potentiated the insulin effect; also recorded: potentiated and prolonged the actions of insulin; also recorded: potentiated and prolonged insulin-mediated blood glucose lowering"}, {"measurement": "insulin-mediated blood glucose reduction to", "setting": "[3]; Compound 102 100 mg/kg i.p. administered 30 minutes after insulin (0.35)", "result": 157, "unit": "mg/dL"}, {"measurement": "effect on blood glucose levels", "setting": "[3]; Compound 102 100 mg/kg i.p. alone, insulin depleted mice, up to 6 hours, 100 mg/kg", "result": "did not affect blood glucose levels at any time point up to 6 hours after administration"}, {"measurement": "blood glucose levels still reduced up to", "setting": "[3]; Compound 102 100 mg/kg i.p. in combination with insulin, time after administration", "result": "up to 6 hours"}]}, {"compound": "Insulin [reference compound]", "values": [{"measurement": "time by which blood glucose levels returned to baseline levels", "setting": "[1]; insulin 3 units/kg alone", "result": "≤ 8", "unit": "h"}, {"measurement": "blood glucose levels", "setting": "[1]; insulin 3 units/kg alone, three hours after administration, fasted 16 week old db/db mice, baseline averaged 482 mg/dL", "result": 166.5, "unit": "mg/dL"}, {"measurement": "blood glucose in the insulin treated group", "setting": "[2]; insulin 1.5 units/kg alone, 24-72 hours window (elevation at 24 and 36 hour time points, rebound effect)", "result": "does not show blood glucose lowering; also recorded: slightly elevated blood glucose"}, {"measurement": "blood glucose levels compared with vehicle controls", "setting": "[2]", "result": "not different from vehicle controls"}, {"measurement": "blood glucose levels", "setting": "[3]; insulin alone (0.35), 90 minutes after administration, baseline 546 mg/dL", "result": 263, "unit": "mg/dL"}, {"measurement": "time at which blood glucose levels returned to baseline levels", "setting": "[3]; insulin alone (0.35), after administration", "result": 4.5, "unit": "h"}]}]}
